# Reference: patent US20160213647A1, “COMPOSITIONS AND METHODS FOR INHIBITING VIRAL INFECTION” (priority 2015, published 2016)
# Read-outs that look alike come from different tables or passages of the source.
# Columns and labels:
# [1] = system: HIV-1 isolate 4736_4; test: microbe, parasite or virus in culture; conditions: Human immunodeficiency virus 1, PBMC
# [2] = system: arenavirus Tacaribe (TCRV), strain TRLV11573; test: microbe, parasite or virus in culture; assay type: cell-based, Tacaribe virus; conditions: Vero
# [3] = system: Junin virus strains Candid-1, XJC13 and IV4454; test: in vitro; conditions: African green monkey (Vero), human (A549)
# [4] = system: Vaccinia; test: microbe, parasite or virus in culture; assay type: cell-based; conditions: Orthopoxvirus vaccinia
# [5] = system: HIV-2 CBL20 H9; test: microbe, parasite or virus in culture; conditions: Human immunodeficiency virus 2, PBMC
# [6] = system: HIV-1 isolate A17; test: microbe, parasite or virus in culture; conditions: Human immunodeficiency virus 1, PBMC
# [7] = system: HIV-1 MDR 769; test: microbe, parasite or virus in culture; conditions: Human immunodeficiency virus 1, PBMC
# [8] = in vitro; conditions: African green monkey, CC50 (Neutral Red)
# [9] = system: Vero cells; conditions: African green monkey
# [10] = system: three JUNV strains; test: microbe, parasite or virus in culture; conditions: Mammarenavirus juninense, read-out: EC50 values, range depending on the virus strain and the host cell
# [11] = system: DENV-3; test: Virus yield reduction assay by qRT-PCR in Vero cells; assay type: cell-based; conditions: Dengue virus, DENV3, Vero, 48 h, read-out: Antiviral Activity IC50
# [12] = system: DENV-4; test: as above; assay type: cell-based; conditions: Dengue virus, DENV4, Vero, 48 h, read-out: Antiviral Activity IC50
# [13] = system: JUNV strain IV4454; test: microbe, parasite or virus in culture; conditions: Mammarenavirus juninense, Vero, 48 h
# [14] = in vivo; cited from earlier work
# [15] = system: BK virus; test: microbe, parasite or virus in culture; assay type: cell-based; conditions: Betapolyomavirus hominis
# [16] = system: HIV-1 isolate MDR769; test: microbe, parasite or virus in culture; conditions: Human immunodeficiency virus 1, PBMC
# [17] = system: Vero
# [18] = system: DENV-2; test: Virus yield reduction assay by qRT-PCR in Vero cells; assay type: cell-based; conditions: Dengue virus, DENV2, Vero, 48 h, read-out: Antiviral Activity IC50
# [19] = system: HIV-1 92HT599; test: microbe, parasite or virus in culture; conditions: Human immunodeficiency virus 1, PBMC
# [20] = system: HIV-2 CDC 310319
# [21] = system: arenavirus Tacaribe (TCRV), strain TRLV11573; test: microbe, parasite or virus in culture; assay type: cell-based, Tacaribe virus; conditions: A549
# [22] = system: HIV-1 isolate 1022-48; test: microbe, parasite or virus in culture; conditions: Human immunodeficiency virus 1, PBMC
# [23] = system: A/Ca/07/09 (H1N1); test: microbe, parasite or virus in culture; assay type: cell-based; conditions: Influenza A virus, H1N1, HEK-293T; read-out: EC50
# [24] = in vitro; conditions: African green monkey
# [25] = system: HIV-1 isolate MDR807; test: microbe, parasite or virus in culture; conditions: Human immunodeficiency virus 1, PBMC
# [26] = system: RHDV isolate Ast/89; test: Treatment of rabbits infected with RHDV; assay type: in vivo, New Zealand white rabbits
# Description: Nine-week-old New Zealand white rabbits in a climatized room at 21° C., with a 12 h light cycle in accordance with the experimental design shown in Table 9 and provided standard dry rabbit food and water ad libitum. For survival studies, 14 animals were injected intramuscularly with 2×10^4 hemagglutination units of RHDV isolate Ast/89 and six of them treated with AR-12 (25 mg/Kg body weight) at 0, 12, 24 and 36 hours post infection ([…]). Animals in those groups were left to die spontaneously.
# [27] = system: influenza A virus (IAV) strain PR8 (H1N1); assay type: cell-based
# [28] = system: Varicella-zoster virus; test: microbe, parasite or virus in culture; assay type: cell-based; conditions: Human alphaherpesvirus 3
# [29] = system: HIV-1 91US001
# [30] = system: JUNV strain Candid-1; test: microbe, parasite or virus in culture; conditions: Mammarenavirus juninense, Vero, 48 h
# [31] = system: JUNV strain IV4454; test: microbe, parasite or virus in culture; conditions: Mammarenavirus juninense, A549, 48 h
# [32] = system: influenza A virus (IAV) strain PR8 (H1N1); assay type: cell-based; remark: listed apart in the source
# [33] = system: JUNV strain XJCl3; test: microbe, parasite or virus in culture; conditions: Mammarenavirus juninense, Vero, 48 h
# [34] = 25 mg/Kg ip, after about 36 hours post infection, versus RHDV
smiles,measurement,setting,value
"NCC(=O)Nc1ccc(-n2nc(C(F)(F)F)cc2-c2ccc3c(ccc4ccccc43)c2)cc1 [AR-12, 2-amino-N-(4-(5-(phenanthren-2-yl)-3-(trifluoromethyl)-1H-pyrazol-1-yl)phenyl)acetamide]",IC90,[1],762 nM
same,IC90,[1]; read-out: IC50,2240 nM
same,EC50,[2],350 ± 30 nM
same,selectivity ratio,[3],35.1 to 129
same,EC50,[4],> 2400 nM
same,EC90,[4],> 2400 nM
same,IC50,[5],510 nM
same,IC90,[6],914 nM
same,IC90,[6]; read-out: IC50,6640 nM
same,IC50,[7],310 nM
same,CC50,[8],1.3 µg/mL
same,MNTD,[9],> 10 µM
same,EC50,[10],150 to 550 nM
same,IC50,[11],600 nM
same,IC50,[12],890 nM
same,EC50,[13],510 ± 50 nM
same,accumulation in tissues,[14],appreciable accumulation in tissues
same,blood brain barrier penetration,[14],rapid blood brain barrier penetration
same,EC50,[15],> 2400 nM
same,EC90,[15],> 2400 nM
same,IC90,[16],848 nM
same,IC90,[16]; read-out: IC50,3820 nM
same,CC50 (neutral red),"[17]; listed as Pichinde Virus An 4763, neutral red",2.8 µg/mL
same,CC50 (visual),[17]; listed as Pichinde Virus An 4763,3.2 µg/mL
same,CC50 (visual),[17]; listed as Yellow Fever Virus 17D,2.8 µg/mL
same,IC50,[18],800 nM
same,IC50,[19],270 nM
same,IC50,[20],370 nM
same,EC50,[21],840 ± 20 nM
same,IC90,[22],489 nM
same,IC90,[22]; read-out: IC50,3680 nM
same,EC50,[23],370 nM
same,CC50,[24]; CC50 (Neutral Red),1.8 µg/mL
same,CC50,[24]; CC50 (neutral red),2.4 µg/mL
same,CC50,[24]; CC50 (visual),2.8 µg/mL
same,IC90,[25],905 nM
same,IC90,[25]; read-out: IC50,2130 nM
same,survival rates of infected rabbits increased,"[26]; 25 mg/Kg ip each 12 hours, at least about 24 hours post infection, p<0.05 Fisher test",about 20%
same,level of marker of liver toxicity ALT (Alanine transaminase),[26]; [34],decreased
same,level of marker of liver toxicity AST (Aspartate transaminase),[26]; [34],decreased
same,level of marker of liver toxicity GGT (gamma-glutamyl transferase),[26]; [34],decreased
same,level of marker of liver toxicity LDH (lactate dehydrogenase),[26]; [34],decreased
same,viral protein production is reduced,[27],at least 50%
same,EC50,[28],1150 nM
same,EC90,[28],1680 nM
same,IC50,[29],240 nM
same,EC50,[30],< 150 nM
same,EC50,[31],550 ± 50 nM
same,viral infection (% infection),[32],prevents viral infections
same,EC50,[33],230 ± 10 nM
